Reference: ChEMBL document CHEMBL4673218, “Kojyl cinnamate esters are peroxisome proliferator-activated receptor α/γ dual agonists” (Bioorg Med Chem, 2018)
Activity calls are given as the source filed them. The calls are words filed in the database; no cut-off is given here.

Assays:
[1] = target: T1, PPAR alpha/gamma (Homo sapiens) (UniProt P37231+Q07869); assay: Agonist activity at PPARalpha/PPARgamma in human NHEK cells assessed as upregulation of ACACB mRNA at 10 uM incubated for 3 days by qRT-PCR analysis; format: cell-based; conditions: time 3.0 day
T1 sequence (P37231 whole entry, looked up, one chain of several): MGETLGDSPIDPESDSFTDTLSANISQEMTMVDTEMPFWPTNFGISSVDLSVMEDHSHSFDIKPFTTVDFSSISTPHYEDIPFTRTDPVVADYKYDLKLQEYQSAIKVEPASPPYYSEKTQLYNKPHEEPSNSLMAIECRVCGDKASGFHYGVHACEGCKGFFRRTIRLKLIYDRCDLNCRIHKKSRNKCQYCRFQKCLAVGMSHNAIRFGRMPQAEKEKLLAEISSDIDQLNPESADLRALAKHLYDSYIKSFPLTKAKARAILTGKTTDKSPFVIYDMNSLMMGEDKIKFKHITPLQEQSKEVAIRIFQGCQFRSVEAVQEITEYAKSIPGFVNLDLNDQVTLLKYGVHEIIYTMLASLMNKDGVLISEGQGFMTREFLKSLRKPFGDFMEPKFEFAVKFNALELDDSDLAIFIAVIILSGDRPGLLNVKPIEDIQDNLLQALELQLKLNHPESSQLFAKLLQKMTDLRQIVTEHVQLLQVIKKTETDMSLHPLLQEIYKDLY

[2] = target: T2, Peroxisome proliferator-activated receptor alpha (Homo sapiens, UniProt Q07869); assay: (§1) Binding affinity to human recombinant PPARalpha by Cheng-Prusoff equation based competitive binding TR-FRET assay
T2 sequence (Q07869 whole entry): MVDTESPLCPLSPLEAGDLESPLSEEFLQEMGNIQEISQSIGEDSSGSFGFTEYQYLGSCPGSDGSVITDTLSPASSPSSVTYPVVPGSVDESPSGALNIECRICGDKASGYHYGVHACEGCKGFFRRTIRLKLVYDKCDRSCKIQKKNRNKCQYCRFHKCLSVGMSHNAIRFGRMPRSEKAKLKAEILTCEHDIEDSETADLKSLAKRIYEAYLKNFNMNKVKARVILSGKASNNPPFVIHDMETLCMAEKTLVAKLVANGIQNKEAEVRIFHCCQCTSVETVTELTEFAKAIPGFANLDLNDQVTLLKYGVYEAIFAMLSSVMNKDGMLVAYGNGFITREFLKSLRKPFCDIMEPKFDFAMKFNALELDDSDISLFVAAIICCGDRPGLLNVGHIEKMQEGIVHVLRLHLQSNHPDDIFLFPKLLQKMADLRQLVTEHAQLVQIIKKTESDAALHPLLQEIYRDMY

[3] = target: T3, Peroxisome proliferator-activated receptor alpha (Homo sapiens) (UniProt Q07869); assay: as §1; conditions: filed as agonist
T3 sequence (whole entry): T2 sequence (Q07869 whole entry)

[4] = Induction of adipogenesis in human AT-MSC assessed as adiponectin secretion at 30 uM in IDX medium incubated for 5 days by ELISA relative to IDX control; format: functional, Adipose tissue derived mesenchymal stem cell; conditions: time 5 day
[5] = target: T1, PPAR alpha/gamma (Homo sapiens); assay: Agonist activity at PPARalpha/PPARgamma in human AT-MSC cells assessed as upregulation of SCD1 mRNA at 10 uM incubated for 3 days by qRT-PCR analysis; format: cell-based; conditions: Adipose tissue derived mesenchymal stem cell, filed as agonist, time 3.0 day
[6] = tested on: NHEK; assay: Inhibition of UVB-induced PTGS2 mRNA in human NHEK cells at 10 uM incubated for 24 hrs by qRT-PCR analysis; format: functional, cell-based
[7] = target: T1, PPAR alpha/gamma (Homo sapiens); assay: Agonist activity at PPARalpha/PPARgamma in human NHEK cells assessed as upregulation of SCD1 mRNA at 10 uM incubated for 3 days by qRT-PCR analysis; format: cell-based; conditions: filed as agonist, time 3.0 day
[8] = target: T1, PPAR alpha/gamma (Homo sapiens); assay: Agonist activity at PPARalpha/PPARgamma in human AT-MSC cells assessed as upregulation of FABP4 mRNA at 10 uM incubated for 3 days by qRT-PCR analysis; format: cell-based; conditions: Adipose tissue derived mesenchymal stem cell, filed as agonist, time 3.0 day
[9] = target: T4, Oxysterols receptor LXR-alpha (Homo sapiens) (UniProt Q13133); assay: Binding affinity to human LXRalpha at 30 uM by competitive ligand binding based TR-FRET assay
T4 sequence (whole entry): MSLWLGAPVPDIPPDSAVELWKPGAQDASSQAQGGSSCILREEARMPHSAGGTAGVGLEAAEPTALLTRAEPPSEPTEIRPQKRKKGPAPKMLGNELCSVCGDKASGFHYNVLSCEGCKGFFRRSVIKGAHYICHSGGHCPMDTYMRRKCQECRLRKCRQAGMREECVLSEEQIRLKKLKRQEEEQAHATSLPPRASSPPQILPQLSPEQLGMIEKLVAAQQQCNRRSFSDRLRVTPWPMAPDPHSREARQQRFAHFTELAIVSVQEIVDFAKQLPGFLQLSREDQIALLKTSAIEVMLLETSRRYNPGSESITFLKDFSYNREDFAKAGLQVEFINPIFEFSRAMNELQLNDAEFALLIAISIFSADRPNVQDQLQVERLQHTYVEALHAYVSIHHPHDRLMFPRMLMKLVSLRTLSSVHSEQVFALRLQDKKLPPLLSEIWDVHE

[10] = target: T1, PPAR alpha/gamma (Homo sapiens); assay: Agonist activity at PPARalpha/PPARgamma in human AT-MSC cells assessed as upregulation of ACACB mRNA at 10 uM incubated for 3 days by qRT-PCR analysis; format: cell-based; conditions: Adipose tissue derived mesenchymal stem cell, filed as agonist, time 3.0 day
[11] = Induction of adipogenesis in human AT-MSC assessed as adiponectin secretion in IDX medium incubated for 5 days by ELISA; format: functional; conditions: adipose tissue derived mesenchymal stem cell
[12] = tested on: Adipose tissue derived mesenchymal stem cell; assay: Induction of adipogenesis in human AT-MSC cells assessed as increase in lipid droplet at 30 uM in IDX medium incubated for 5 days by Oil Red O staining based inverted phase microscopy relative to IDX control; format: functional; conditions: time 5.0 day
[13] = target: T5, Peroxisome proliferator-activated receptor delta (Homo sapiens) (UniProt Q03181); assay: Binding affinity to human recombinant PPARdelta at 30 uM by competitive binding based TR-FRET assay
T5 sequence (whole entry): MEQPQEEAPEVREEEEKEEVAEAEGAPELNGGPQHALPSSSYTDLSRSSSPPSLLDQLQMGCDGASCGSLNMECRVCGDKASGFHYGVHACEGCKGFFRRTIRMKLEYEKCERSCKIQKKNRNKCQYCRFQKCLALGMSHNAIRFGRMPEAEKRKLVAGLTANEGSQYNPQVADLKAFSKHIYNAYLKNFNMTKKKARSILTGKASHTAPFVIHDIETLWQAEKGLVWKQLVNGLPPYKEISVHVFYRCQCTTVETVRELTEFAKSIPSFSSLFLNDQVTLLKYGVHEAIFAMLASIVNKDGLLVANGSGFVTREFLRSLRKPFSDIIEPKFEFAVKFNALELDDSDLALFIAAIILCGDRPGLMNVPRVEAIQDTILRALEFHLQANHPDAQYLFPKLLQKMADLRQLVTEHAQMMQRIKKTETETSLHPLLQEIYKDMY

[14] = target: T1, PPAR alpha/gamma (Homo sapiens); assay: Agonist activity at PPARalpha/PPARgamma in human AT-MSC cells assessed as upregulation of adiponectin mRNA at 10 uM incubated for 3 days by qRT-PCR analysis; format: cell-based; conditions: Adipose tissue derived mesenchymal stem cell, filed as agonist, time 3.0 day
[15] = target: T1, PPAR alpha/gamma (Homo sapiens); assay: Agonist activity at PPARalpha/PPARgamma in human NHEK cells assessed as upregulation of FASN mRNA at 10 uM incubated for 3 days by qRT-PCR analysis; format: cell-based; conditions: time 3.0 day
[16] = tested on: NHEK; assay: Inhibition of UVB-induced PGE2 level in human NHEK cells at 10 uM incubated for 24 hrs by ELISA; format: functional, cell-based
[17] = Induction of adipogenesis in human AT-MSC assessed as adiponectin secretion at 30 uM in IDX medium incubated for 5 days by ELISA (reference value: 100 +/- 15 pg/ml); format: functional, Adipose tissue derived mesenchymal stem cell; conditions: time 5 day

For `COc1ccc(OC)c(/C=C/C(=O)OCc2cc(=O)c(O)co2)c1`, the Activity [1] was “inactive”, the Ki [2] was 9.5 µM and the Activity [3] was “Dose-dependent effect”. For the same molecule, the “fold change (FC)” value [4] was 3.83, the Activity [5] was “Active” and the inhibition [6] was “Active”. For the same molecule, the Activity [7] was “Active”, the Activity [8] was “Active” and the Activity [9] was “inactive”. The Activity [10] was “Active”, the EC50 [11] was 7.6 µM and the Activity [12] was “Active”. For the same molecule, the Activity [13] was “inactive”, the Activity [14] was “Active” and the Activity [15] was “inactive”. For the same molecule, the inhibition [16] was “Active” and the Activity [17] was 383 pg/mL.
